Laboratory results from US7998952B2, “Thiolactams and uses thereof” (Millennium Pharmaceuticals, Inc., priority 2008, dated 2011).

Biological target: T1, recombinant human PLK1[2-369]T210D (Homo sapiens, UniProt P53350, T210D)
T1 construct: recombinant human PLK1[2-369]T210D; Smt (SUMO) fusion partner (N, cleaved yes); host or cells: E. coli
Test: PLK1 DELFIA Kinase Assay
Assay type: biochemical
Conditions: 50 μM ATP, 2 μM peptide substrate, 0.3 nM enzyme, 90 minutes at room temperature
Protocol: Recombinant human PLK1 was expressed in E. coli as an N-terminal Smt fusion protein using a proprietary vector (pSGX4) by Structural Genomics (SGX). The fusion partner was removed through cleavage with Ulp1 after an initial purification using a Ni2+ affinity column.
PLK1 DELFIA® Kinase Assay
The enzymatic reaction mixture, with or without PLK inhibitors, was incubated 90 minutes at room temperature before termination with 50 μL of STOP buffer containing 1% BSA, 0.05% Tween20, 100 mM EDTA. 50 μL of the stopped enzyme reaction mixture was transferred to a Neutravidin-coated 384-well plate (Pierce) and incubated at room temperature for 60 minutes. […] The wells were washed and then the bound europium was liberated using 50 μL of Enhancement Solution (Perkin Elmer). Quantification of europium was done using a Pherastar (BMG Labtech)

T1 sequence (P53350 2-369 T210D): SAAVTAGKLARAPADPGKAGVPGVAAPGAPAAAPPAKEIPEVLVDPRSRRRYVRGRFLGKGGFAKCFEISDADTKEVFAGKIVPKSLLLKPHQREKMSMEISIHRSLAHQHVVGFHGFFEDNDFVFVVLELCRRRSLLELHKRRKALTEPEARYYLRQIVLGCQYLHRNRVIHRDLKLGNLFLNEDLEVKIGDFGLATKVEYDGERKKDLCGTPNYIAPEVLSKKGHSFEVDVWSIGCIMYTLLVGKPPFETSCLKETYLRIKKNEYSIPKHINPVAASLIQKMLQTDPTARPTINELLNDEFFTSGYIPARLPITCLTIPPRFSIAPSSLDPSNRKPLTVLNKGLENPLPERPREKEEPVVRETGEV

Row | SMILES | IC50
1 | Cc1ncc(CCCO)cc1Nc1ncc2c(n1)-c1ccc(C(F)(F)F)cc1NC(=S)C2 [Compound I-55, 2-{[5-(3-hydroxypropyl)-2-methylpyridin-3-yl]amino}-9-(trifluoromethyl)-5,7-dihydro-6H-pyrimido[5,4-d][1]benzazepine-6-thione] | < 5 nM
2 | Cc1nc(OC2CCN(C)CC2)ccc1Nc1ncc2c(n1)-c1ccc(Cl)cc1NC(=S)C2 [Compound I-56, 9-chloro-2-({2-methyl-6-[(1-methylpiperidin-4-yl)oxy]pyridin-3-yl}amino)-5,7-dihydro-6H-pyrimido[5,4-d][1]benzazepine-6-thione] | 5 to 25 nM
3 | Cc1nc(NC(C)C)ccc1Nc1ncc2c(n1)-c1ccc(C(F)(F)F)cc1NC(=S)C2 [Compound I-57, 2-{[6-(isopropylamino)-2-methylpyridin-3-yl]amino}-9-(trifluoromethyl)-5,7-dihydro-6H-pyrimido[5,4-d][1]benzazepine-6-thione] | < 5 nM
4 | CCN1CCN(c2cncc(Nc3ncc4c(n3)-c3ccc(Cl)cc3NC(=S)C4)c2)C[C@H]1C [Compound I-58, 9-chloro-2-({5-[(3R)-4-ethyl-3-methylpiperazin-1-yl]pyridin-3-yl}amino)-5,7-dihydro-6H-pyrimido[5,4-d][1]benzazepine-6-thione] | < 5 nM
5 | Cc1ncc(CCN2CCC(N(C)C)CC2)cc1Nc1ncc2c(n1)-c1ccc(Cl)cc1NC(=S)C2 [Compound I-59, 9-chloro-2-[(5-{2-[4-(dimethylamino)piperidin-1-yl]ethyl}-2-methylpyridin-3-yl)amino]-5,7-dihydro-6H-pyrimido[5,4-d][1]benzazepine-6-thione] | < 5 nM
6 | Cc1ccc2c(c1)NC(=S)Cc1cnc(Nc3cc(CCCN(C)C)cnc3C)nc1-2 [Compound I-60, 2-({5-[3-(dimethylamino)propyl]-2-methylpyridin-3-yl}amino)-9-methyl-5,7-dihydro-6H-pyrimido[5,4-d][1]benzazepine-6-thione] | < 5 nM
7 | CN1CCN(c2ccc(Nc3ncc4c(n3)-c3ccc(C(F)(F)F)cc3NC(=S)C4)cn2)CC1 [Compound I-61, 2-{[6-(4-methylpiperazin-1-yl)pyridin-3-yl]amino}-9-(trifluoromethyl)-5,7-dihydro-6H-pyrimido[5,4-d][1]benzazepine-6-thione] | < 5 nM
8 | CNCCCc1cnc(C)c(Nc2ncc3c(n2)-c2ccc(C(F)(F)F)cc2NC(=S)C3)c1 [Compound I-62, 2-({2-methyl-5-[3-(methylamino)propyl]pyridin-3-yl}amino)-9-(trifluoromethyl)-5,7-dihydro-6H-pyrimido[5,4-d][1]benzazepine-6-thione] | < 5 nM
9 | Cc1ncc(C2CCN(C)CC2(C)C)cc1Nc1ncc2c(n1)-c1ccc(Cl)cc1NC(=S)C2 (centres unmarked) [Compound I-63, 9-chloro-2-{[2-methyl-5-(1,3,3-trimethylpiperidin-4-yl)pyridin-3-yl]amino}-5,7-dihydro-6H-pyrimido[5,4-d][1]benzazepine-6-thione] | < 5 nM
10 | Cc1nc(NCCN(C)C)ccc1Nc1ncc2c(n1)-c1ccc(C(F)(F)F)cc1NC(=S)C2 [Compound I-64, 2-[(6-{[2-(dimethylamino)ethyl]amino}-2-methylpyridin-3-yl)amino]-9-(trifluoromethyl)-5,7-dihydro-6H-pyrimido[5,4-d][1]benzazepine-6-thione] | < 5 nM
11 | Cc1nc(NCC2CCN(C)CC2)ccc1Nc1ncc2c(n1)-c1ccc(C(F)(F)F)cc1NC(=S)C2 [Compound I-65] | < 5 nM
12 | CCN1CCN(c2cnc(C)c(Nc3ncc4c(n3)-c3ccc(Cl)cc3NC(=S)C4)c2)C[C@@H]1C [Compound I-66, 9-chloro-2-({5-[(3S)-4-ethyl-3-methylpiperazin-1-yl]-2-methylpyridin-3-yl}amino)-5,7-dihydro-6H-pyrimido[5,4-d][1]benzazepine-6-thione] | < 5 nM
13 | Cc1nc(NC2CCNCC2)ccc1Nc1ncc2c(n1)-c1ccc(C(F)(F)F)cc1NC(=S)C2 [Compound I-67, 2-{[2-methyl-6-(piperidin-4-ylamino)pyridin-3-yl]amino}-9-(trifluoromethyl)-5,7-dihydro-6H-pyrimido[5,4-d][1]benzazepine-6-thione] | < 5 nM
14 | Nc1ccc(Nc2ncc3c(n2)-c2ccc(Cl)cc2NC(=S)C3)cn1 [Compound I-68, 2-[(6-aminopyridin-3-yl)amino]-9-chloro-5,7-dihydro-6H-pyrimido[5,4-d][1]benzazepine-6-thione] | < 5 nM
15 | Cc1nc(N2CCC(N(C)C)CC2)ccc1Nc1ncc2c(n1)-c1ccc(Cl)cc1NC(=S)C2 [Compound I-69, 9-chloro-2-({6-[4-(dimethylamino)piperidin-1-yl]-2-methylpyridin-3-yl}amino)-5,7-dihydro-6H-pyrimido[5,4-d][1]benzazepine-6-thione] | < 5 nM
16 | CN(C)CCc1cnc(C(F)(F)F)c(Nc2ncc3c(n2)-c2ccc(Cl)cc2NC(=S)C3)c1 [Compound I-70, 9-chloro-2-{[5-[2-(dimethylamino)ethyl]-2-(trifluoromethyl)pyridin-3-yl]amino}-5,7-dihydro-6H-pyrimido[5,4-d][1]benzazepine-6-thione] | 5 to 25 nM
17 | CN(C)CCCN(C)c1ccc(Nc2ncc3c(n2)-c2ccc(Cl)cc2NC(=S)C3)cn1 [Compound I-71, 9-chloro-2-({6-[[3-(dimethylamino)propyl](methyl)amino]pyridin-3-yl}amino)-5,7-dihydro-6H-pyrimido[5,4-d][1]benzazepine-6-thione] | 5 to 25 nM
18 | Cc1ncc(CCN2CCOCC2)cc1Nc1ncc2c(n1)-c1ccc(Cl)cc1NC(=S)C2 [Compound I-72, 9-chloro-2-{[2-methyl-5-(2-morpholin-4-ylethyl)pyridin-3-yl]amino}-5,7-dihydro-6H-pyrimido[5,4-d][1]benzazepine-6-thione] | < 5 nM
19 | Cc1nc(N2CCN(C)CC2)ccc1Nc1ncc2c(n1)-c1ccc(Cl)cc1NC(=S)C2 [Compound I-73, 9-chloro-2-{[2-methyl-6-(4-methylpiperazin-1-yl)pyridin-3-yl]amino}-5,7-dihydro-6H-pyrimido[5,4-d][1]benzazepine-6-thione] | < 5 nM
20 | Cc1cc(NC2CCN(C)CC2)ncc1Nc1ncc2c(n1)-c1ccc(C(F)(F)F)cc1NC(=S)C2 [Compound I-74, 2-({4-methyl-6-[(1-methylpiperidin-4-yl)amino]pyridin-3-yl}amino)-9-(trifluoromethyl)-5,7-dihydro-6H-pyrimido[5,4-d][1]benzazepine-6-thione] | < 5 nM
21 | Cc1nc(N(C)C2CCN(C)CC2)ccc1Nc1ncc2c(n1)-c1ccc(C(F)(F)F)cc1NC(=S)C2 [Compound I-75, 2-({2-methyl-6-[methyl(1-methylpiperidin-4-yl)amino]pyridin-3-yl}amino)-9-(trifluoromethyl)-5,7-dihydro-6H-pyrimido[5,4-d][1]benzazepine-6-thione] | < 5 nM
22 | Cc1nc(NCCCN(C)C)ccc1Nc1ncc2c(n1)-c1ccc(Cl)cc1NC(=S)C2 [Compound I-76, 9-chloro-2-[(6-{[3-(dimethylamino)propyl]amino}-2-methylpyridin-3-yl)amino]-5,7-dihydro-6H-pyrimido[5,4-d][1]benzazepine-6-thione] | < 5 nM
23 | Cc1nc(OC2CCN(C)CC2)ccc1Nc1ncc2c(n1)-c1ccc(C(F)(F)F)cc1NC(=S)C2 [Compound I-77, 2-({2-methyl-6-[(1-methylpiperidin-4-yl)oxy]pyridin-3-yl}amino)-9-(trifluoromethyl)-5,7-dihydro-6H-pyrimido[5,4-d][1]benzazepine-6-thione] | < 5 nM
24 | S=C1Cc2cnc(Nc3cncc(CCN4CCOCC4)c3)nc2-c2ccc(Cl)cc2N1 [Compound I-78, 9-chloro-2-{[5-(2-morpholin-4-ylethyl)pyridin-3-yl]amino}-5,7-dihydro-6H-pyrimido[5,4-d][1]benzazepine-6-thione] | < 5 nM
25 | Cc1ncc(CCCN(C)C)cc1Nc1ncc2c(n1)-c1ccc(C#N)cc1NC(=S)C2 [Compound I-79, 2-({5-[3-(dimethylamino)propyl]-2-methylpyridin-3-yl}amino)-6-thioxo-6,7-dihydro-5H-pyrimido[5,4-d][1]benzazepine-9-carbonitrile] | 5 to 25 nM
26 | Cc1nc(NC2CCN(C)CC2)ccc1Nc1ncc2c(n1)-c1ccc(C3CC3)cc1NC(=S)C2 [Compound I-80, 9-cyclopropyl-2-({2-methyl-6-[(1-methylpiperidin-4-yl)amino]pyridin-3-yl}amino)-5,7-dihydro-6H-pyrimido[5,4-d][1]benzazepine-6-thione] | < 5 nM
27 | Cc1ccc(Nc2ncc3c(n2)-c2ccc(Cl)cc2NC(=S)C3)c(C)n1 [Compound I-81, 9-chloro-2-[(2,6-dimethylpyridin-3-yl)amino]-5,7-dihydro-6H-pyrimido[5,4-d][1]benzazepine-6-thione] | < 5 nM
28 | Cc1nc(N2CCCCC2)ccc1Nc1ncc2c(n1)-c1ccc(Cl)cc1NC(=S)C2 [Compound I-82, 9-chloro-2-[(2-methyl-6-piperidin-1-ylpyridin-3-yl)amino]-5,7-dihydro-6H-pyrimido[5,4-d][1]benzazepine-6-thione] | 5 to 25 nM
29 | Cc1nc(N2CCOCC2)ccc1Nc1ncc2c(n1)-c1cc(CCCN(C)C)c(Cl)cc1NC(=S)C2 [Compound I-83, 9-chloro-10-[3-(dimethylamino)propyl]-2-[(2-methyl-6-morpholin-4-ylpyridin-3-yl)amino]-5,7-dihydro-6H-pyrimido[5,4-d][1]benzazepine-6-thione] | 5 to 25 nM
